From article PMC5454964, “Isolation of Rice Bran Lectins and Characterization of Their Unique Behavior in Caco-2 Cells” (International Journal of Molecular Sciences, 2017)

What was measured:
[1] = target: T1, RBA1 (rice bran lectin 1) (Oryza sativa, UniProt Q0JF21); experiment: hemagglutination inhibition (rabbit erythrocytes); type: biochemical; conditions: pH 7.5, room temperature, 2-fold serial dilution
T1 construct: gene Os04g0173800; disulfide-linked heterodimer of 20- and 12-kDa subunits, 32-33 kDa
T1 sequence (Q0JF21 29-122): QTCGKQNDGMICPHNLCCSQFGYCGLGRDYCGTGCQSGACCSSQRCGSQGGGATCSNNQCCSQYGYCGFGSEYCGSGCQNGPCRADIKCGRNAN
T1 sequence (Q0JF21 123-201): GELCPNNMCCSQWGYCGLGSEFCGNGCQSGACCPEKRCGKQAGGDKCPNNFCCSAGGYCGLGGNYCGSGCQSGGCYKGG
Excerpt: hemagglutination inhibition (rabbit erythrocytes) on RBA1 (rice bran lectin 1)

[2] = target: T2, RBA2 (rice bran lectin 2) (Oryza sativa, UniProt Q0JF21); experiment: hemagglutination inhibition (rabbit erythrocytes); type: biochemical; conditions: pH 7.5, room temperature, 2-fold serial dilution
T2 construct: gene Os04g0173800; noncovalent homodimer of 12-kDa subunits, 25 kDa
T2 sequence (Q0JF21 123-201): T1 sequence (Q0JF21 123-201)
Excerpt: hemagglutination inhibition (rabbit erythrocytes) on RBA2 (rice bran lectin 2)

[3] = target: T3, bovine serum albumin (BSA) (Bos taurus, UniProt P02769); experiment: frontal affinity chromatography, immobilised protein; type: binding; conditions: pH 7.3, 25 °C, EDTA-PB
T3 construct: gene ALB
T3 sequence (P02769 25-607): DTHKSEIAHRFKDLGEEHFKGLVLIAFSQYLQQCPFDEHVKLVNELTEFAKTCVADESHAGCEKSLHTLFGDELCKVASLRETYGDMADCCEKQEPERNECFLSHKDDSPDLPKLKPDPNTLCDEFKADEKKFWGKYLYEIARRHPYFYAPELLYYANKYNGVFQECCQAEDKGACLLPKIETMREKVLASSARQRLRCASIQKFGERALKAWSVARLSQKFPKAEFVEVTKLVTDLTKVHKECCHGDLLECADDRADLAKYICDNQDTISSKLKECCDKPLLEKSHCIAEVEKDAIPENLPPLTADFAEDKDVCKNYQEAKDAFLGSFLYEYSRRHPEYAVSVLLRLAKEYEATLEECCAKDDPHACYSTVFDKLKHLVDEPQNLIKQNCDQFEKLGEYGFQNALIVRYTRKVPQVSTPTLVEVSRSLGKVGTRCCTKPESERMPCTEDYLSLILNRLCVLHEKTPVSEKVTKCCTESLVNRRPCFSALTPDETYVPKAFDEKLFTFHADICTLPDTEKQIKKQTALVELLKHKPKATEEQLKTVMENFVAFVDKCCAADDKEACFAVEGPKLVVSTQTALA

| SMILES | RBA1 [1] [mM] | RBA2 [2] [mM] | hemagglutination inhibition concentration [2] [mM] | V - V0 [3] |
| --- | --- | --- | --- | --- |
| N[C@H]1[C@H](O[C@H]2[C@H](O)[C@@H](N)C(O)O[C@@H]2CO)O[C@H](CO)[C@@H](O)[C@@H]1O (stereo partly shown) [Chitobiose] | 100 | – | – | – |
| N[C@H]1C(O)O[C@H](CO)[C@H](O)[C@@H]1O (stereo partly drawn) [D-Galactosamine] | > 200 | 0.8 | – | – |
| N[C@H]1C(O)O[C@H](CO)[C@@H](O)[C@@H]1O (stereo partly drawn) [D-Glucosamine] | > 200 | 3.1 | – | – |
| CC(=O)N[C@H]1[C@H](O[C@H]2[C@H](O)[C@@H](NC(C)=O)C(O)O[C@@H]2CO)O[C@H](CO)[C@@H](O)[C@@H]1O (stereo partly shown) [Di-N-acetylchitobiose] | 0.78 | 6.25 | – | – |
| CC(=O)N[C@H]1[C@H](O[C@H]2[C@H](O)[C@@H](NC(C)=O)[C@H](O[C@H]3[C@H](O)[C@@H](NC(C)=O)C(O)O[C@@H]3CO)O[C@@H]2CO)O[C@H](CO)[C@@H](O[C@@H]2O[C@H](CO)[C@@H](O[C@@H]3O[C@H](CO)[C@@H](O[C@@H]4O[C@H](CO)[C@@H](O)[C@H](O)[C@H]4NC(C)=O)[C@H](O)[C@H]3NC(C)=O)[C@H](O)[C@H]2NC(C)=O)[C@@H]1O (stereo partly shown) [Hexa-N-acetylchitohexaose] | 0.04 | – | 0.04 | – |
| CC(=O)N[C@H]1C(O)O[C@H](CO)[C@H](O)[C@@H]1O (stereo partly drawn) [N-Acetyl D-galactosamine] | – | 50 | – | – |
| CC(=O)N[C@H]1C(O)O[C@H](CO)[C@@H](O)[C@@H]1O (stereo partly drawn) [N-Acetyl D-glucosamine] | 25 | 50 | – | – |
| CC(=O)N[C@H]1[C@H](O[C@H]2[C@H](O)[C@@H](NC(C)=O)[C@H](O[C@H]3[C@H](O)[C@@H](NC(C)=O)C(O)O[C@@H]3CO)O[C@@H]2CO)O[C@H](CO)[C@@H](O[C@@H]2O[C@H](CO)[C@@H](O[C@@H]3O[C@H](CO)[C@@H](O)[C@H](O)[C@H]3NC(C)=O)[C@H](O)[C@H]2NC(C)=O)[C@@H]1O (stereo partly shown) [Penta-N-acetylchitopentaose] | 0.02 | 0.04 | – | – |
| COC(=O)c1ccccc1-c1c2ccc(=N)cc-2oc2cc(N)ccc12 [Rhodamine 123] | – | – | – | BSA showed a similar interaction with RH. |
| CC(=O)N[C@H]1[C@H](O[C@H]2[C@H](O)[C@@H](NC(C)=O)C(O)O[C@@H]2CO)O[C@H](CO)[C@@H](O[C@@H]2O[C@H](CO)[C@@H](O[C@@H]3O[C@H](CO)[C@@H](O)[C@H](O)[C@H]3NC(C)=O)[C@H](O)[C@H]2NC(C)=O)[C@@H]1O (stereo partly shown) [Tetra-N-acetylchitotetraose] | 0.04 | – | 0.04 | – |
| CC(=O)N[C@H]1[C@H](O[C@H]2[C@H](O)[C@@H](NC(C)=O)C(O)O[C@@H]2CO)O[C@H](CO)[C@@H](O[C@@H]2O[C@H](CO)[C@@H](O)[C@H](O)[C@H]2NC(C)=O)[C@@H]1O (stereo partly shown) [Tri-N-acetylchitotriose] | 0.09 | 0.39 | – | – |
